These results are taken from article PMC6105804, “In Vitro and In Vivo Evaluation of APX001A/APX001 and Other Gwt1 Inhibitors against Cryptococcus” (Antimicrobial Agents and Chemotherapy, 2018).

A word on the MIC: it is the lowest concentration found to suppress growth. What is called MIC90 is the lowest concentration that inhibits either 90% of growth or 90% of the strains tested, depending on the study.

Converted amounts (≈) assume the structure as drawn. Where two headings read alike, the source gives them in different places.

The test system of data set [1] is C. neoformans. As to the kind of experiment: Broth microdilution susceptibility testing (CLSI M27-A3). It counts as cell-based, Cryptococcus neoformans. The note with it: for MIC: Cryptococcus neoformans. An excerpt: (§1) C. neoformans strains H99, DUMC 118.00, and DUMC 158.03 and C. gattii strains R272 and RSA-MW-3515 were obtained from Duke University. C. albicans 90028, A. fumigatus MYA3626, C. neoformans 14116, C. neoformans 76484, and the pathogenic Cryptococcus reference strains panel (ATCC MP-11) were obtained from the American Type Culture Collection (ATCC; Manassas, VA, USA). The ATCC MP-11 panel consists of strains representing eight molecular types and three subtypes of C. neoformans and C. gattii.
(§2) To establish the antimicrobial activity of the APX001A analogs, broth microdilution susceptibility testing was performed according to Clinical and Laboratory Standards Institute (CLSI) guidelines M27-A3 ([47]) for yeasts and M38-A2 for molds ([48]). APX001A and analogs were first diluted in DMSO to obtain intermediate dilutions. These were further diluted in microtiter plates to obtain a final concentration of 2 to 0.002 μg/ml. One microliter of DMSO was added to the no-drug control wells. The solutions were mixed on a plate shaker for 10 min, and the plates were incubated at 35°C for 40 to 48 h (C. albicans, A. fumigatus) and 72 h (C. neoformans). The minimum concentration that led to a 50% reduction in fungal growth compared to that for the control (determined with the aid of a reading mirror) was determined as the MIC for C. albicans and C. neoformans. The minimum concentration that led to the shortening of hyphae compared to the hyphal growth in DMSO control wells was determined as the minimum effective concentration (MEC) for A. fumigatus (as read for the echinocandins). The use of the MIC and MEC endpoints for APX001A (formerly E1210) against yeasts and molds, respectively, has been described previously ([19][–][21]). For the cryptococcal synergy studies, APX001A and APX2020 MIC values were read at 50% inhibition.
A general note: Broth dilution looks for growth in wells or tubes with falling amounts of substance.

Data set [2] has as its system FLC-susceptible and FLC-nonsusceptible/resistant strains of C. neoformans and C. gattii. The data set can be described thus: Broth microdilution, summary over the 18-strain Cryptococcus collection. Type of data set: cell-based, Cryptococcus neoformans and Cryptococcus gattii. The note with it: 18 strains of C. neoformans and C. gattii. The protocol:
as §2, with “The minimum concentration that led to the shortening of hyphae compared to the hyphal growth in DMSO control wells was determined as the minimum effective concentration (MEC) for A. fumigatus (as read for the echinocandins).” left out

In the next data set the test system is C. gattii. The data set can be described thus: Broth microdilution susceptibility testing (CLSI M27-A3). To be noted: Cryptococcus gattii. Type of data set: cell-based.
Source text: as §1, §2

Data set [3] can be described thus: Single-dose mouse pharmacokinetics of prodrugs with or without ABT. Type of data set: in vivo. To be noted: for AUC: male, CD-1, mouse, plasma, 26 mg/kg. The protocol:
The area under the curve (AUC) was calculated from time zero to the time of the last measurable concentration. The active metabolite concentrations in plasma (APX001A, APX2039, APX2020, and APX2041) were determined by liquid chromatography-tandem mass spectrometry. PK parameters were determined using Phoenix WinNonlin (v7.0) software and a noncompartmental model.

A further data set has as its system C. neoformans H99. As to the kind of experiment: Microtiter checkerboard synergy with FLC. It counts as cell-based, Cryptococcus neoformans. The note with it: in combination with FLC, MIC read at 50% inhibition, synergy FICI < 0.5. The protocol: An important consideration for developing a new treatment for CM is the potential for inclusion in combination therapy. We evaluated the synergy of APX001A and APX2020 in combination with FLC using standard microtiter dilution techniques ([33]). […] Importantly, no antagonism was observed.
as §2, with “The use of the MIC and MEC endpoints for APX001A (formerly E1210) against yeasts and molds, respectively, has been described previously ([19][–][21]). For the cryptococcal synergy studies, APX001A and APX2020 MIC values were read at 50% inhibition.” left out

In another data set the test system is A. fumigatus MYA3626. As to the kind of experiment: Broth microdilution susceptibility testing for molds (CLSI M38-A2). It counts as cell-based. To be noted: Aspergillus fumigatus, MYA3626; read-out: MIC or MEC for A. fumigatus MYA3626.
Source text: as §1, §2

Another data set deals with C. albicans 90028. The data set can be described thus: Broth microdilution susceptibility testing (CLSI M27-A3). Type of data set: cell-based, Candida albicans. To be noted: Candida albicans, 90028; read-out: MIC, C. albicans 90028.
Source text: as §1, §2

Data set [4] concerns C. neoformans. Also noted: method as in PMID 23740727. The note with it: 46 strains of C. neoformans, global study; cited from earlier work.

`Nc1ncccc1-c1cc(Cc2ccc(OCc3ccccc3)cc2)no1` [APX2020]: the MIC is 0.031 µg/mL in the data set with C. neoformans [1] (72 h, Table 1, 50% growth inhibition for FLC, caspofungin and APX compounds, 100% for AMB, 72 h, read-out: MIC, C. neoformans H99); 0.031 µg/mL with C. neoformans [1] (C. neoformans isolate 14116, read-out: MIC); 0.063 µg/mL with C. neoformans [1] (C. neoformans isolate 76484, read-out: MIC); 0.063 µg/mL with C. neoformans [1] (C. neoformans isolate DUMC 118.00 (FLC resistant), read-out: MIC); 0.25 µg/mL in the data set on C. neoformans [1] (C. neoformans isolate DUMC 158.03 (FLC resistant), read-out: MIC); 0.063 µg/mL with C. neoformans [1] (C. neoformans isolate MYA-4564, read-out: MIC). In addition, the MIC turned out to be 0.25 µg/mL with C. neoformans [1] (C. neoformans isolate MYA-4565, read-out: MIC); 0.125 µg/mL in the data set with C. neoformans [1] (C. neoformans isolate MYA-4566, read-out: MIC); 0.063 µg/mL in the data set on C. neoformans [1] (C. neoformans isolate MYA-4567, read-out: MIC); 0.031 µg/mL in the data set on C. neoformans [1] (Table 2, C. neoformans isolate H99, read-out: MIC); 0.085 µg/mL in data set [2] (read-out: Geometric mean MIC); 0.125 µg/mL with C. gattii (C. gattii isolate MYA-4093, read-out: MIC). The MIC in the data set on C. gattii (C. gattii isolate MYA-4094, read-out: MIC) is 0.25 µg/mL; in the data set with C. gattii (C. gattii isolate MYA-4560 (first listing, r17), read-out: MIC) it was 0.063 µg/mL; with C. gattii (C. gattii isolate MYA-4560 (second listing, r21), read-out: MIC), 0.063 µg/mL; in the data set on C. gattii (C. gattii isolate MYA-4561, read-out: MIC) it was 0.125 µg/mL; with C. gattii (C. gattii isolate MYA-4562, read-out: MIC) it was 0.125 µg/mL; in the data set with C. gattii (C. gattii isolate MYA-4563, read-out: MIC) it was 0.125 µg/mL. The MIC with C. gattii (C. gattii isolate MYA-4877, read-out: MIC) stood at 0.063 µg/mL; in the data set with C. gattii (C. gattii isolate RSA-MW-3615 (FLC resistant), read-out: MIC) it was 0.031 µg/mL; in the data set on C. gattii (Table 1, 50% growth inhibition for FLC, caspofungin and APX compounds, 100% for AMB, read-out: MIC, C. gattii WM276), 0.031 µg/mL; in the data set with A. fumigatus MYA3626, 0.031 µg/mL; with C. albicans 90028, 0.016 µg/mL. Moreover, the “fold improved anti-C. neoformans H99 activity vs APX001A” value with C. neoformans [1] (from MIC values of Table 1) worked out at 8 fold. In addition, the MIC90 in data set [2] was 0.25 µg/mL. For the same compound, the “Ratio of AUC with ABT/AUC without ABT, i.p. dosing” value in data set [3] (26 mg/kg prodrug) is reported as 8.3. Further, the “Ratio of AUC with ABT/AUC without ABT, p.o. dosing” value in data set [3] (26 mg/kg prodrug) was determined as 9.3. In addition, the AUC in data set [3] (intraperitoneal, AUC of analyte after 26 mg/kg prodrug, 100 mg/kg ABT orally 2 h before, read-out: Avg AUC resulting from 26-mg/kg dose, i.p. dosing + ABT) stood at 35600 ± 28200 ng·h/mL; in data set [3] (ip, AUC of analyte after 26 mg/kg of the corresponding prodrug, male CD-1 mice, no ABT, read-out: Avg AUC resulting from 26-mg/kg dose, i.p. dosing) it was 4310 ± 960 ng·h/mL; in data set [3] (po, AUC of analyte after 26 mg/kg prodrug, 100 mg/kg ABT orally 2 h before, read-out: Avg AUC resulting from 26-mg/kg dose, p.o. dosing + ABT), 41900 ± 6410 ng·h/mL; in data set [3] (po, AUC of analyte in plasma after 26 mg/kg of the corresponding prodrug, male CD-1 mice, no ABT, read-out: Avg AUC resulting from 26-mg/kg dose, p.o. dosing), 4490 ± 2320 ng·h/mL. In addition, the “fractional inhibitory concentration index (FICI)” value in the data set on C. neoformans H99 was 0.37.
For the compound `C[C@@H](c1nc(-c2ccc(C#N)cc2)cs1)[C@](O)(Cn1cncn1)c1cc(F)ccc1F` [isavuconazole], the MIC90 with C. neoformans [4] is 0.06 µg/mL (≈ 0.137 µM).
